Assay results reported in the NIST ThermoML archive (doi:10.1021/je900962v).
Values joined by “and” are separate entries in the source; they are usually repeats but may differ in a detail not shown here. Identical values can stand only once.

Tests used:
[1] = xn = mol fraction of the nth substance listed; details: 298.15 K
[2] = 298.15 K

O [water] + CCCCOC(C)=O
Details | surface tension liquid-gas [mN/m]
[1], x2 = 0 | 71.57

O [water] + CCOC(C)=O
Details | surface tension liquid-gas [mN/m]
[1], Drop volume, x2 = 0 | 71.57

CCCCOC(C)=O [butyl ethanoate]
Details | surface tension liquid-gas [mN/m]
[2] | 24.91

CCOC(C)=O [ethyl acetate]
Details | surface tension liquid-gas [mN/m]
[2], Drop volume | 23.93

COC(C)=O [methyl ethanoate] + O
[1], Drop volume
Details | surface tension liquid-gas [mN/m]
x1 = 0.004 | 61.87
x1 = 0.0047 | 60.57
x1 = 0.0056 | 59.67
x1 = 0.0069 | 57.62
x1 = 0.0093 | 54.72
x1 = 0.0115 | 53.25
x1 = 0.0147 | 49.91
x1 = 0.0183 | 48.18
x1 = 0.0214 | 46.68
x1 = 0.0245 | 44.35
x1 = 0.029 | 42.63
x1 = 0.0341 | 40.26
x1 = 0.0433 | 36.64
x1 = 0.0523 | 33.49
x1 = 0.0586 | 31.61
x1 = 0.0702 | 29.12
x1 = 1 | 24.79

O [water] + CCCOC(C)=O
Details | surface tension liquid-gas [mN/m]
[1], Drop volume, x2 = 0 | 71.57

CCOC(C)=O [ethyl acetate] + O
[1], Drop volume
Details | surface tension liquid-gas [mN/m]
x1 = 0.0011 | 62.08
x1 = 0.0013 | 60.95
x1 = 0.0014 | 60.43
x1 = 0.0017 | 59.33
x1 = 0.0018 | 58.8
x1 = 0.0025 | 56.64
x1 = 0.0033 | 54.17
x1 = 0.0044 | 51.16
x1 = 0.0054 | 48.98
x1 = 0.0061 | 47.92
x1 = 0.008 | 44.22
x1 = 0.0089 | 43.31
x1 = 0.0118 | 41.37
x1 = 0.0141 | 38.97
x1 = 1 | 23.93

O [water]
Details | surface tension liquid-gas [mN/m]
[2], Drop volume | 71.57

CCCOC(C)=O [propyl ethanoate]
Details | surface tension liquid-gas [mN/m]
[2], Drop volume | 24.22

COC(C)=O [methyl ethanoate]
Details | surface tension liquid-gas [mN/m]
[2], Drop volume | 24.79

O [water] + COC(C)=O
Details | surface tension liquid-gas [mN/m]
[1], Drop volume, x2 = 0 | 71.57

CCCOC(C)=O [propyl ethanoate] + O
[1], Drop volume
Details | surface tension liquid-gas
x1 = 0.00017 | 65.86 mN/m
x1 = 0.00023 | 64.54 mN/m
x1 = 0.00031 | 62.64 mN/m and 63.23 mN/m
x1 = 0.00038 | 61.64 mN/m
x1 = 0.00041 | 61.43 mN/m
x1 = 0.00049 | 60.29 mN/m
x1 = 0.00052 | 59.4 mN/m
x1 = 0.00057 | 59.02 mN/m
x1 = 0.00071 | 57.47 mN/m
x1 = 0.00074 | 56.94 mN/m
x1 = 0.00083 | 56.17 mN/m
x1 = 0.00103 | 54.38 mN/m
x1 = 0.00104 | 53.7 mN/m
x1 = 0.00114 | 53.49 mN/m
x1 = 0.00116 | 53.22 mN/m
x1 = 0.00142 | 50.93 mN/m and 51.11 mN/m
x1 = 0.00158 | 49.17 mN/m
x1 = 0.00159 | 49.3 mN/m
x1 = 0.00208 | 46.76 mN/m
x1 = 0.00239 | 45.44 mN/m
x1 = 0.00318 | 42.65 mN/m
x1 = 0.00355 | 41.31 mN/m
x1 = 0.00367 | 40.63 mN/m
x1 = 0.0038 | 40.55 mN/m
x1 = 1 | 24.22 mN/m

CCCCOC(C)=O [butyl ethanoate] + O
[1]
Details | surface tension liquid-gas [mN/m]
x1 = 7.97e-05 | 63.74
x1 = 7.99e-05 | 64.49
x1 = 8.76e-05 | 63.71
x1 = 8.81e-05 | 64.3
x1 = 0.000104 | 62.6
x1 = 0.000124 | 61.81
x1 = 0.000131 | 61.47
x1 = 0.000142 | 61.15
x1 = 0.000173 | 59.3
x1 = 0.000216 | 57.5
x1 = 0.000274 | 55.53
x1 = 0.000343 | 53.31
x1 = 0.000439 | 51.12
x1 = 0.000536 | 49.09
x1 = 0.00067 | 46.9
x1 = 0.000754 | 45.57
x1 = 0.00081 | 44.42
x1 = 0.000933 | 43.1
x1 = 1 | 24.91
